Laboratory results: ChEMBL document CHEMBL1201862, “PubChem BioAssay data set” (2004)
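Results reflect a 48-hour exposure of cells in 96-well plates to compound at five concentrations. GI50 = concentration required for 50% inhibition of growth.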 The source made the active and inactive calls. Cut-off read from the data, not from the text of the source: active = GI50 up to about 1.1 µM and inactive = higher.

Legend:
Experiment in all cases: DTP human tumour cell line panel, 48 h
[1] = test system: LOX IMVI
[2] = test system: K562
[3] = test system: SR
[4] = test system: ACHN
[5] = test system: NCI-H23
[6] = test system: KM12
[7] = test system: MDA-N
[8] = test system: SK-MEL-28
[9] = test system: MDA-MB-231
[10] = test system: IGROV-1
[11] = test system: HT-29
[12] = test system: TK-10
[13] = test system: NCI-H522
[14] = test system: A498
[15] = test system: RXF 393
[16] = test system: UO-31
[17] = test system: MOLT-4
[18] = test system: DU-145
[19] = test system: HOP-92
[20] = test system: RPMI-8226

Row | Compound | GI50 [1] | GI50 [2] | GI50 [3] | GI50 [4] | GI50 [5] | GI50 [6] | GI50 [7] | GI50 [8] | GI50 [9] | GI50 [10] | GI50 [11] | GI50 [12] | GI50 [13] | GI50 [14] | GI50 [15] | GI50 [16] | GI50 [17] | GI50 [18] | GI50 [19] | GI50 [20]
1 | O=[N+]([O-])c1cc(-c2ccc([As](=O)(O)O)cc2)ccc1[As](=O)(O)O | > 100 µM (inactive) | > 100 µM (inactive) | > 100 µM (inactive) | > 100 µM (inactive) | > 100 µM (inactive) | > 100 µM (inactive) | > 100 µM (inactive) | > 100 µM (inactive) | > 100 µM (inactive) | > 100 µM (inactive) | > 100 µM (inactive) | > 100 µM (inactive) | > 100 µM (inactive) | > 100 µM (inactive) | > 100 µM (inactive) | > 100 µM (inactive) | > 100 µM (inactive) | > 100 µM (inactive) | > 100 µM (inactive) | > 100 µM (inactive)
2 | C1CSC(Sc2nc(SC3=NCCS3)nc(SC3=NCCS3)n2)=N1 | > 100 µM (inactive) | > 100 µM (inactive) | > 100 µM (inactive) | > 100 µM (inactive) | > 100 µM (inactive) | > 100 µM (inactive) | > 100 µM (inactive) | > 100 µM (inactive) | > 100 µM (inactive) | > 100 µM (inactive) | > 100 µM (inactive) | > 100 µM (inactive) | 35.5 µM (inactive) | > 100 µM (inactive) | > 100 µM (inactive) | > 100 µM (inactive) | > 100 µM (inactive) | > 100 µM (inactive) | > 100 µM (inactive) | > 100 µM (inactive)
3 | CN(C)c1n2c3cc([N+](=O)[O-])ccc3[n+]3c(N(C)C)n4ccccc4c3c2c2cccc[n+]12.[O-][Cl+3]([O-])([O-])[O-].[O-][Cl+3]([O-])([O-])[O-] | > 100 µM (inactive) | > 100 µM (inactive) | > 100 µM (inactive) | > 100 µM (inactive) | > 100 µM (inactive) | > 100 µM (inactive) | > 100 µM (inactive) | > 100 µM (inactive) | > 100 µM (inactive) | > 100 µM (inactive) | > 100 µM (inactive) | > 100 µM (inactive) | 34.9 µM (inactive) | > 100 µM (inactive) | > 100 µM (inactive) | > 100 µM (inactive) | > 100 µM (inactive) | > 100 µM (inactive) | > 100 µM (inactive) | > 100 µM (inactive)
4 | CC1=NNC(=S)NCCCN2CCN(CCCNC(=S)NN=C(C)C=NNC(=S)NCCCN3CCN(CCCNC(=S)NN=C1)CC3)CC2 | > 100 µM (inactive) | > 100 µM (inactive) | > 100 µM (inactive) | > 100 µM (inactive) | > 100 µM (inactive) | > 100 µM (inactive) | > 100 µM (inactive) | > 100 µM (inactive) | > 100 µM (inactive) | > 100 µM (inactive) | > 100 µM (inactive) | > 100 µM (inactive) | > 100 µM (inactive) | > 100 µM (inactive) | > 100 µM (inactive) | > 100 µM (inactive) | > 100 µM (inactive) | > 100 µM (inactive) | > 100 µM (inactive) | > 100 µM (inactive)
5 | Cc1cc(S(=O)(=O)Nc2nc(Nc3ccc(Cl)cc3)n[nH]2)c(S)cc1Cl | 75.7 µM (inactive) | > 100 µM (inactive) | > 100 µM (inactive) | 37.9 µM (inactive) | 82.8 µM (inactive) | 31.6 µM (inactive) | 55.2 µM (inactive) | > 100 µM (inactive) | > 100 µM (inactive) | 70.5 µM (inactive) | 81.1 µM (inactive) | > 100 µM (inactive) | 70.5 µM (inactive) | > 100 µM (inactive) | > 100 µM (inactive) | 79.1 µM (inactive) | > 100 µM (inactive) | > 100 µM (inactive) | > 100 µM (inactive) | > 100 µM (inactive)
6 | COC(=O)CCc1cc(OC)c2c(c1)[C@H](C(=O)OC)[C@@H](c1ccc(O)c(OC)c1)O2 | 57.5 µM (inactive) | 13.4 µM (inactive) | 1.43 µM (inactive) | 86.5 µM (inactive) | 38.5 µM (inactive) | 30.6 µM (inactive) | 17.7 µM (inactive) | 41.9 µM (inactive) | 50.6 µM (inactive) | 61.8 µM (inactive) | 36.2 µM (inactive) | > 100 µM (inactive) | 38.3 µM (inactive) | 31.5 µM (inactive) | 55.8 µM (inactive) | 52.1 µM (inactive) | 24.7 µM (inactive) | > 100 µM (inactive) | > 100 µM (inactive) | 17.6 µM (inactive)
7 | O=[N+]([O-])c1ccc2sc(/C=N/c3cnccn3)cc2c1 | 22.8 µM (inactive) | 21.4 µM (inactive) | 14.5 µM (inactive) | 30.9 µM (inactive) | 63 µM (inactive) | 57.5 µM (inactive) | 24.1 µM (inactive) | 28.3 µM (inactive) | 23.7 µM (inactive) | 58.3 µM (inactive) | 39.2 µM (inactive) | 30.3 µM (inactive) | 32.5 µM (inactive) | 27.4 µM (inactive) | 0.597 µM (active) | 24.1 µM (inactive) | 10.7 µM (inactive) | 21.5 µM (inactive) | 60.1 µM (inactive) | 16 µM (inactive)
